Results from the supplement of paper PMC12463676, “Small-molecule dissolution of stress granules by redox modulation benefits ALS models” (Nature Chemical Biology, 2025).

Experiments:
[1] = compound: NC(=O)CCCCC1CCSS1 [lipoamide]; assay: thermal stability z-score vs DMSO; higher = more thermally stabilized by treatment; settings: HeLa, lipoamide concentration 100 µM
Experimental: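 Cellular thermal proteome profiling in HeLa cells. Cells were treated with 100 µM lipoamide for 1 h, with or without 1 mM arsenate for a further 1 h, then heated to ten temperatures (37-66.3 °C), and soluble protein was quantified by TMT mass spectrometry relative to 0.1% DMSO controls. The thermal stability score (sum of log2 fold changes minus the abundance score) was transformed to a z-score; mean of n = 3 experiments.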

[2] = compound: O=[As]([O-])(O)O.[K+] [potassium arsenate]; assay: as above; settings: HeLa; arsenate concentration 1 mM
Experimental: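 Cellular thermal proteome profiling in HeLa cells treated with 1 mM arsenate for 1 h (DMSO pretreatment), heated to ten temperatures (37-66.3 °C). Soluble protein was quantified by TMT mass spectrometry relative to DMSO controls; the thermal stability score was transformed to a z-score; mean of n = 3 experiments.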

[3] = arsenate co-treatment: 1 mM arsenate 1 h
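Note: each temperature applied for 3 min, abundance score taken as mean log2 fold change at the two lowest temperatures, z-score obtained by mean subtraction and division by SD.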

Sequence of UniProt O15355 (O15355 whole entry): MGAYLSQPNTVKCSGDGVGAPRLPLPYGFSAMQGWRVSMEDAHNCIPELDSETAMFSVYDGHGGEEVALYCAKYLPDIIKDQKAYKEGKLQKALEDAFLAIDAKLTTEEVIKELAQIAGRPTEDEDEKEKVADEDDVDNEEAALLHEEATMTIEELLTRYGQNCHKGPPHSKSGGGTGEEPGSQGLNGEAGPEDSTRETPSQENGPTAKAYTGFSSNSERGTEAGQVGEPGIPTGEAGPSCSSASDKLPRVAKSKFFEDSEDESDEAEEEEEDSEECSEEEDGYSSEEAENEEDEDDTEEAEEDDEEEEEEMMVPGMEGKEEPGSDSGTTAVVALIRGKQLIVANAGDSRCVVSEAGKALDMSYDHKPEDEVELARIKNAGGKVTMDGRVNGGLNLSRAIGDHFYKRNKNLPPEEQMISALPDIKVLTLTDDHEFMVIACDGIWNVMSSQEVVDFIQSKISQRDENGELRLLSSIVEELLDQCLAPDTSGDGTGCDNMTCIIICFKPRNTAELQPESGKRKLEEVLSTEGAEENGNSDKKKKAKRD
Sequence of UniProt P29144 (P29144 whole entry): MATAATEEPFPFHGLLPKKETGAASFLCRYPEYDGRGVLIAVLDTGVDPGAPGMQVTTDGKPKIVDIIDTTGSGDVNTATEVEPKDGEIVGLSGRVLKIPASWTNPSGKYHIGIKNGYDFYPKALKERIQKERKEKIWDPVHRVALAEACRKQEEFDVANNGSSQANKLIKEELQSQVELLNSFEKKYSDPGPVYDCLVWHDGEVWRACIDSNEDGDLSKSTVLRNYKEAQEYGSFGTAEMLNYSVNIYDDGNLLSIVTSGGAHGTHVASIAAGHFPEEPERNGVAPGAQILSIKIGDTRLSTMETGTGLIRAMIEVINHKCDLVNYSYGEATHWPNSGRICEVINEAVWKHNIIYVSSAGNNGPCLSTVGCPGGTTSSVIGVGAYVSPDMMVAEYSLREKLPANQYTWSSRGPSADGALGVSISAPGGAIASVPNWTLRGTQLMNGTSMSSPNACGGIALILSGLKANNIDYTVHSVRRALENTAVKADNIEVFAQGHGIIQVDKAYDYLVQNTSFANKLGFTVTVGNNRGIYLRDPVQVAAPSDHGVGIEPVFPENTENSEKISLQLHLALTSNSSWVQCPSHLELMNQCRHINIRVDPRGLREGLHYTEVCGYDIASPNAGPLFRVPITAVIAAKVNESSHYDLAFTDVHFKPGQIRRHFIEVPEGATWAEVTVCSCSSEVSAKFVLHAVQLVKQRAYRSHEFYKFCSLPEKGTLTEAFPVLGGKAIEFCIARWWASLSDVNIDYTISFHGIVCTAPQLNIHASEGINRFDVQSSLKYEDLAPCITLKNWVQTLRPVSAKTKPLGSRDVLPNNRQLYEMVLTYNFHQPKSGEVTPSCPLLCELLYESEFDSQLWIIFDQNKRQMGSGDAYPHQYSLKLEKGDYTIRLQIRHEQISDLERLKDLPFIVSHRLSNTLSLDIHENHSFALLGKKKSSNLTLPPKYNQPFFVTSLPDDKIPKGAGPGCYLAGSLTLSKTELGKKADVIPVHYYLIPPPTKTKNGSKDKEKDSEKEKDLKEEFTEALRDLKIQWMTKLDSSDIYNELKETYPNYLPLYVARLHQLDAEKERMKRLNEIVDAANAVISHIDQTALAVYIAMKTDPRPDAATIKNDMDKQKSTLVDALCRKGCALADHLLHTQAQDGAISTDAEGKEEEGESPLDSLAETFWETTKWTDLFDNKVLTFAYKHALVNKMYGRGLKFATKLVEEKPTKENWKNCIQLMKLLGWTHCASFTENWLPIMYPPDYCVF
Sequence of UniProt Q9NVP1 (Q9NVP1 whole entry): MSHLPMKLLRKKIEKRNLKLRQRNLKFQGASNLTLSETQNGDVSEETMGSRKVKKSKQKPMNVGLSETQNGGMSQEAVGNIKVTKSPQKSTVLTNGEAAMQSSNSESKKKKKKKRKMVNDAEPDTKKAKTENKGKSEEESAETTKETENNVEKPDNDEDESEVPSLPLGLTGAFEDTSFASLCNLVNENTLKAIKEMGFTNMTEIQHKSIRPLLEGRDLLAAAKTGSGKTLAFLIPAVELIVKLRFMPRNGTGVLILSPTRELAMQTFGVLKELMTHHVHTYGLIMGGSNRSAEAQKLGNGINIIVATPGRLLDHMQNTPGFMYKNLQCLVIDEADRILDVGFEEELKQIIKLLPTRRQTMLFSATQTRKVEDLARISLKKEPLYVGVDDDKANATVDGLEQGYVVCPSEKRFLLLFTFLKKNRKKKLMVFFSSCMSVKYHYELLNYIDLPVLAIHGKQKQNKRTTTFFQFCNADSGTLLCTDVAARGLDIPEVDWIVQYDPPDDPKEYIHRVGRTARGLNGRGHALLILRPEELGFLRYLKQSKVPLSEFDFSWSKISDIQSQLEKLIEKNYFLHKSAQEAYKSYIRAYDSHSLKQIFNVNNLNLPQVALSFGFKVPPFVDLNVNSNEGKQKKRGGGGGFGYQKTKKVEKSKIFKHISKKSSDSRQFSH
Sequence of UniProt Q6Y288 (Q6Y288 whole entry): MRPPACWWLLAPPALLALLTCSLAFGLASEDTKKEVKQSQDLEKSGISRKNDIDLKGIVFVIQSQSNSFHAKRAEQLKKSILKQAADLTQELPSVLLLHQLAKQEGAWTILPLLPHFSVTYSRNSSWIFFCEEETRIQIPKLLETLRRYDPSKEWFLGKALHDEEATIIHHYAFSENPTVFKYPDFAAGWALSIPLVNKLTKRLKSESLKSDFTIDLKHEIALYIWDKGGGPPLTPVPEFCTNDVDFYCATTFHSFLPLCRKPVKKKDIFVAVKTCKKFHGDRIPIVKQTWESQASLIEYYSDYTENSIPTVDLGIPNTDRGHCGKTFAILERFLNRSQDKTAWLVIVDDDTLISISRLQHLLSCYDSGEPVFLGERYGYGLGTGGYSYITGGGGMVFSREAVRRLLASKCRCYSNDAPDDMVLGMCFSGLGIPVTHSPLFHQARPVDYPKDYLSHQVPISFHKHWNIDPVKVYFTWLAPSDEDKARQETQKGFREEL
Sequence of UniProt O94766 (O94766 whole entry, one chain of several): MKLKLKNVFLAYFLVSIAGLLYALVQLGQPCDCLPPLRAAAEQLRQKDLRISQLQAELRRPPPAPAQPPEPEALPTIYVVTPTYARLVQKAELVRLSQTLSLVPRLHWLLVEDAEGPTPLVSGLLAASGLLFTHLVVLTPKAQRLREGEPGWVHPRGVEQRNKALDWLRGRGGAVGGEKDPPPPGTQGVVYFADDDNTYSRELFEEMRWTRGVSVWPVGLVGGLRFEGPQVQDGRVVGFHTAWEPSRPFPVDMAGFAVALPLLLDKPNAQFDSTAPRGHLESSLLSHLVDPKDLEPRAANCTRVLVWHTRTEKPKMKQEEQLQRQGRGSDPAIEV
Sequence of UniProt P22570 (P22570 whole entry): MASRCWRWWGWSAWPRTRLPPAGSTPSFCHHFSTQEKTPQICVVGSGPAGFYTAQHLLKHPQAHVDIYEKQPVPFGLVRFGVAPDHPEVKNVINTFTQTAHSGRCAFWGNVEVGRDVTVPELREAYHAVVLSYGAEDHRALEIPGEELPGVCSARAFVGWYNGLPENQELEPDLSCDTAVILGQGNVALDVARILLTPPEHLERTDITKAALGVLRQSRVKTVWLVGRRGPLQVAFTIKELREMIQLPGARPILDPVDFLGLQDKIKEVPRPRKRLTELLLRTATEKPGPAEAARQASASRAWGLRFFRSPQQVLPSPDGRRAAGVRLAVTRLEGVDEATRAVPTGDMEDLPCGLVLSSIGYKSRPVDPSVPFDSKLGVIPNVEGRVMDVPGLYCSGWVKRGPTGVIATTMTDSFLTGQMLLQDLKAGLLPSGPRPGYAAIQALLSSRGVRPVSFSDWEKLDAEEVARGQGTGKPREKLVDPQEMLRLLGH
Sequence of UniProt O00231 (O00231 whole entry): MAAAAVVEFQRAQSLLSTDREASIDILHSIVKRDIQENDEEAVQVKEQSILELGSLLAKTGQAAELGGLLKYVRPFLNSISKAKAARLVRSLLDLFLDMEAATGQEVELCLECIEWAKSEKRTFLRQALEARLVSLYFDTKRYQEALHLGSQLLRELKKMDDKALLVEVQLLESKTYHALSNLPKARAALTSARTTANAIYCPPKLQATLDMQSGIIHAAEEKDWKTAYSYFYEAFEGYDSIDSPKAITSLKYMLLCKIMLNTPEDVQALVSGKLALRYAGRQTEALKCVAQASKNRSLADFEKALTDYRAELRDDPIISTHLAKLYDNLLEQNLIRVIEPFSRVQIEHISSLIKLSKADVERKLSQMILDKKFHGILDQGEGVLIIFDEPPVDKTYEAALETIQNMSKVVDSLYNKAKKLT
Sequence of UniProt P20851 (P20851 whole entry): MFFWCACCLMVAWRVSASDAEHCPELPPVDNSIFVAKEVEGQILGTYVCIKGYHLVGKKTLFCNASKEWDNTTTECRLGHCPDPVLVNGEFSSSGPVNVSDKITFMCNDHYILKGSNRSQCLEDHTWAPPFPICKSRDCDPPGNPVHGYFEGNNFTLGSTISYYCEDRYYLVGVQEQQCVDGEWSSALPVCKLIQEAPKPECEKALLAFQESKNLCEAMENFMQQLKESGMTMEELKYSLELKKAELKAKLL
Sequence of UniProt P07099 (P07099 whole entry): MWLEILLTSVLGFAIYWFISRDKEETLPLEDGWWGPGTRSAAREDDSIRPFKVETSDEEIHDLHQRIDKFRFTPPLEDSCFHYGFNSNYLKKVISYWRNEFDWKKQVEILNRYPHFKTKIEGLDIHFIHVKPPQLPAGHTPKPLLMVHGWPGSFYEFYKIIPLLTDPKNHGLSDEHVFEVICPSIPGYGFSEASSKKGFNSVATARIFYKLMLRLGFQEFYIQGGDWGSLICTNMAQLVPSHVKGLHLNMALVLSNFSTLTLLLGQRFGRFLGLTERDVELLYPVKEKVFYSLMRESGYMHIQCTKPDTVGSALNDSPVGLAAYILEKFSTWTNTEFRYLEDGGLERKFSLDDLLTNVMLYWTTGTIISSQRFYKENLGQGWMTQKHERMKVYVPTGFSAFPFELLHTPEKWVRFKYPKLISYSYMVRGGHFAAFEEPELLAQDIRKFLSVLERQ

Target	thermal stability z-score [1, 3]	thermal stability z-score ([1]; arsenate co-treatment: none)	thermal stability z-score [2]
MAN2B1 (UniProt O00754)	-1.18	-0.63	-0.312
ERCC5 (UniProt P28715)	0.121	0.0638	0.401
MAPKAPK3 (UniProt Q16644)	-0.203	-0.362	-0.508
C4BPB (UniProt P20851)	-5.06	-5.39	0.18
B3GAT3 (UniProt O94766)	-0.54	-0.00376	0.0971
PREX1 (UniProt Q8TCU6)	0.02	0.0645	-0.0577
EIF3A (UniProt Q14152)	0.713	0.446	0.432
BASP1 (UniProt P80723)	0.861	0.592	-0.142
EPHX1 (UniProt P07099)	3.16	3.19	0.24
TERF2IP (UniProt Q9NYB0)	-0.302	0.33	-0.131
NMD3 (UniProt Q96D46)	0.204	0.115	-0.0507
VARS (UniProt P26640)	0.0159	-0.0112	0.373
FMR1 (UniProt Q06787)	0.0851	0.195	0.0999
DDX24 (UniProt Q9GZR7)	1.1	0.327	-0.522
PELO (UniProt Q9BRX2)	-0.811	-0.364	-0.0213
TACC2 (UniProt O95359)	0.243	0.134	0.409
NUDT1 (UniProt P36639)	0.505	0.0984	-0.00492
NDUFS8 (UniProt O00217)	-0.474	-0.512	-0.279
ATM (UniProt Q13315)	0.678	-0.445	0.00628
MED14 (UniProt O60244)	-0.0798	-0.176	-0.2
RAD51AP1 (UniProt Q96B01)	0.0622	-0.213	-0.76
SNRNP200 (UniProt O75643)	-0.116	-0.285	-0.662
WDR45B (UniProt Q5MNZ6)	0.848	0.63	0.162
NCAPG2 (UniProt Q86XI2)	-0.00836	-0.0717	-0.267

Target	thermal stability z-score [1, 3]	thermal stability z-score ([1]; arsenate co-treatment: none)	thermal stability z-score [2]
C14ORF166 (UniProt Q9Y224)	0.126	0.251	-0.994
VASP (UniProt P50552)	0.564	0.923	-0.33
PSMA1 (UniProt P25786)	0.629	0.284	0.373
FOXO3 (UniProt O43524)	-0.0135	-0.184	0.19
TRMT2A (UniProt Q8IZ69)	-0.235	-0.172	-0.216
LMNA (UniProt P02545)	0.567	0.493	-0.488
POLB (UniProt P06746)	-0.0159	-0.17	-0.111
HBS1L (UniProt Q9Y450)	0.179	0.0726	-0.278
DDX18 (UniProt Q9NVP1)	0.301	0.0191	-1.26
PPM1G (UniProt O15355)	0.2	0.916	-0.0978
ENPEP (UniProt Q07075)	0.281	0.407	-0.0304
PDDC1 (UniProt Q8NB37)	0.604	-0.174	-2.18
C1GALT1C1 (UniProt Q96EU7)	-0.776	-0.734	0.1
HSPH1 (UniProt Q92598)	-0.0648	-0.0435	0.196
ELF1 (UniProt P32519)	-0.422	-0.185	-0.287
HPS5 (UniProt Q9UPZ3)	-0.0872	0.00734	-0.219
MCM6 (UniProt Q14566)	-0.81	-0.253	-0.919
B3GLCT (UniProt Q6Y288)	-0.669	-1.54	0.968
ALG5 (UniProt Q9Y673)	0.39	-0.1	0.347
TAB1 (UniProt Q15750)	-0.188	-0.291	-0.294
KDM4A (UniProt O75164)	-0.16	-0.11	-0.178
SQSTM1 (UniProt Q13501)	-0.226	-0.109	0.758
MRRF (UniProt Q96E11)	0.298	0.823	0.97
PWP2 (UniProt Q15269)	-0.256	0.154	0.864

Target	thermal stability z-score [1, 3]	thermal stability z-score ([1]; arsenate co-treatment: none)	thermal stability z-score [2]
TPP2 (UniProt P29144)	0.657	0.44	0.194
STX12 (UniProt Q86Y82)	0.379	0.716	0.452
SRSF7 (UniProt Q16629)	1.94	0.776	0.182
NT5DC3 (UniProt Q86UY8)	0.036	-0.0265	-0.179
NAA35 (UniProt Q5VZE5)	0.334	0.635	0.265
HOOK2 (UniProt Q96ED9)	0.0635	-0.0859	-0.0139
PANK2 (UniProt Q9BZ23)	0.583	0.588	0.53
SND1 (UniProt Q7KZF4)	0.317	0.479	-1.08
DHTKD1 (UniProt Q96HY7)	-0.237	0.0606	-0.558
NUMB (UniProt P49757)	-0.402	0.201	-2.09
TRIM32 (UniProt Q13049)	-0.257	-0.125	-3.56
NCOA2 (UniProt Q15596)	-0.239	-0.0592	-0.284
FDXR (UniProt P22570)	-0.331	-0.428	0.404
MAPK14 (UniProt Q16539)	0.87	-0.0481	0.772
EIF2AK2 (UniProt P19525)	-0.0654	-0.252	-1.01
YOD1 (UniProt Q5VVQ6)	-0.00898	-0.121	0.0186
RABGGTA (UniProt Q92696)	-0.0918	-0.138	-0.000862
PTPN3 (UniProt P26045)	-0.085	-0.294	-0.31
PSMD11 (UniProt O00231)	-0.641	-0.384	-0.694
BMP1 (UniProt P13497)	0.492	0.427	0.347
FKBP8 (UniProt Q14318)	-1.33	-0.861	1.05
YEATS4 (UniProt O95619)	0.802	0.865	-0.33
XPO6 (UniProt Q96QU8)	0.0641	0.00854	-0.339
